Assay results from patent US11008311B2, “Potassium salt of benzimidazole compound and preparation method therefor, composition and application thereof” (WUHAN LL SCIENCE AND TECHNOLOGY DEVELOPMENT CO., LTD., priority 2016, dated 2021).
Converted amounts (≈) assume the structure as drawn.

Columns and labels:
[1] = test system: spontaneously hypertensive rats; assay: Antihypertensive efficacy test in spontaneously hypertensive rats (systolic blood pressure and heart rate by implanted blood pressure sensor); format: in vivo, rat; conditions: SHR, intragastric, 1 mg/kg as azilsartan; for Change in heart rate / Changes in systolic blood pressure: mean ± standard error
Procedure: 12-week-old spontaneously hypertensive rats (hereinafter referred to as SHR, purchased from Beijing Vital River Laboratory Animal Technology Co., Ltd.) were anesthetized with 2.5% sodium pentobarbital for intraperitoneal injection. The blood pressure sensing catheter of a blood pressure implant was inserted into the abdominal aorta, the implant was fixed to the abdominal wall, and the postoperative daily care was performed after suturing. Animals with systolic blood pressure exceeding 160 mmHg were selected into a total of 3 groups with 8 animals in each group. The control group was given 0.5% CMC-Na (sodium carboxymethylcellulose); in the OR01019 group and the QR01019K group, the compounds were dissolved in 0.5% CMC-Na, and the doses were all administered at an effective dose of 1 mg/kg of azilsartan with an administration volume of 4 mL/kg by intragastric administration. The systolic blood pressure and heart rate of the animals before the administration were used as reference values, and the changes of systolic blood pressure and heart rate of SHR at each time point before and after administration were compared, in which the systolic blood pressure and heart rate of SHR were measured three times at each time point and then averaged.

[2] = Determination of equilibrium solubility; format: physicochemical; conditions: for solubility thermodynamic at 24 h: 37 °C, thermodynamic from solid, 37±2° C., based on azilsartan
[3] = before administration (reference value)
[4] = aqueous buffer, pH 4.5 (acetate buffer)
[5] = aqueous buffer, pH 6.8 (phosphate buffer)
[6] = aqueous buffer, pH 7.8 (phosphate buffer)
[7] = simulated gastric fluid, pH 1.0 (hydrochloric acid solution)

solubility thermodynamic at 24 h [2, 4] | solubility thermodynamic at 24 h [2, 5] | solubility thermodynamic at 24 h [2, 6] | solubility thermodynamic at 24 h [2, 7] | solubility thermodynamic at 24 h ([2]; Pure water) | SMILES | Change in heart rate ([1]; 1 hour after administration) | Changes in systolic blood pressure ([1]; 1 hour after administration) | Change in heart rate ([1]; 3 hours after administration) | Changes in systolic blood pressure ([1]; 3 hours after administration) | Change in heart rate ([1]; 5 hours after administration) | Changes in systolic blood pressure ([1]; 5 hours after administration) | Change in heart rate ([1]; 7 hours after administration) | Changes in systolic blood pressure ([1]; 7 hours after administration) | Change in heart rate ([1]; 10 hours after administration) | Changes in systolic blood pressure ([1]; 10 hours after administration) | Change in heart rate ([1]; 24 hours after administration) | Changes in systolic blood pressure ([1]; 24 hours after administration) | Change in heart rate [1, 3] | Changes in systolic blood pressure [1, 3] | other results
0.06 µg/mL (≈ 0.0884 µM) | 1.6 µg/mL (≈ 2.36 µM) | 13.6 µg/mL (≈ 20 µM) | 2.01 µg/mL (≈ 2.96 µM) | 0.74 µg/mL (≈ 1.09 µM) | CCOc1nc2cccc(C(=O)OC(C)OC(=O)OCc3nc(C)c(C)nc3C)c2n1Cc1ccc(-c2ccccc2-c2noc(=O)[nH]2)cc1 (centres unmarked) [QR01019, reference compound] | −3.4 ± 2.6 times/minute | −4.9 ± 4.8 mmHg | −2.33 ± 2.6 times/minute | −22.0 ± 3.6 mmHg | −6.5 ± 2.8 times/minute | −30.5 ± 3.5 mmHg | −6.2 ± 3.0 times/minute | −38.8 ± 2.3 mmHg | −12.3 ± 2.8 times/minute | −33.0 ± 1.7 mmHg | −6.7 ± 2.6 times/minute | −10.2 ± 2.1 mmHg | 0.0 ± 0.0 times/minute | 0.0 ± 0.0 mmHg | –
2.3 µg/mL | 25.9 µg/mL | 400 µg/mL | 18.7 µg/mL | 542 µg/mL | CCOc1nc2cccc(C(=O)OC(C)OC(=O)OCc3nc(C)c(C)nc3C)c2n1Cc1ccc(-c2ccccc2-c2noc(=O)[n-]2)cc1.[K+] (centres unmarked) [QR01019K] | −3.6 ± 2.4 times/minute | −7.0 ± 3.4 mmHg | −5.0 ± 2.5 times/minute | −34.3 ± 1.9 mmHg | −10.1 ± 3.0 times/minute | −46.5 ± 2.5 mmHg | −17.5 ± 3.0 times/minute | −49.4 ± 4.1 mmHg | −25.4 ± 2.4 times/minute | −45.3 ± 3.3 mmHg | −28.6 ± 8 times/minute | −25.9 ± 3.4 mmHg | 0.0 ± 0.0 times/minute | 0.0 ± 0.0 mmHg | antihypertensive effect compared with QR01019 (in words) [1]: more potent and longer-lasting antihypertensive effect than QR01019; effect of reducing heart rate compared with QR01019 (in words) [1]: more potent and longer-lasting effect of reducing heart rate than QR01019; concentrations in acidic and neutral media compared with QR01019 (in words) ([2]; equilibrium solubility, Table 5): much higher than QR01019
